The values below come from PubChem BioAssay AID248 (DTP/NCI, 2004).

“And” between values parts separate entries of the source, which are not always exact repeats. Equal entries are not always repeated. Inconclusive results and toxic doses are left out.

The test system of the experiment is L1210 leukemia ip in BDF1 mice, survival T/C. Kind of experiment: NCI In Vivo Anticancer Drug Screen. Data for tumor model L1210 Leukemia (intraperitoneal) in B6D2F1 (BDF1) mice. The note with it: higher = longer survival. An outline of the steps:
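Antitumor effect is assessed in tumor-bearing animals. Survival in the compound arm is compared with a vehicle-dosed control arm and expressed as their quotient.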

The mark [1] stands for this setting: endpoint: mean survival time, dose: 100.0 mg/kg/injection, schedule: Q04DX003 (ip), vehicle: saline with Tween-80.
Where [2] appears, read: endpoint: mean survival time, dose: 200.0 mg/kg/injection, schedule: Q04DX003 (ip), vehicle: saline with Tween-80.

In the case of `COc1cccc2c1C(=O)c1c(O)c3c(c(O)c1C2=O)C[C@@](O)(/C(C)=N/NC(=O)c1ccccc1)C[C@@H]3OC1CC(N)C(O)C(C)O1` (stereo partly specified), the T/C is 110 % of control (endpoint: mean survival time, dose: 0.25 mg/kg/injection, schedule: Q04DX003 (ip), vehicle: water); 111 % of control (endpoint: mean survival time, dose: 0.5 mg/kg/injection, schedule: Q04DX003 (ip), vehicle: water); 117 % of control (endpoint: mean survival time, dose: 1.0 mg/kg/injection, schedule: Q04DX003 (ip), vehicle: water); 124 % of control (endpoint: mean survival time, dose: 4.0 mg/kg/injection, schedule: Q04DX003 (ip), vehicle: water); 151 % of control (endpoint: mean survival time, dose: 8.0 mg/kg/injection, schedule: Q04DX003 (ip), vehicle: water); 179 % of control and 205 % of control (endpoint: mean survival time, dose: 16.0 mg/kg/injection, schedule: Q04DX003 (ip), vehicle: water). Moreover, the T/C (endpoint: mean survival time, dose: 24.0 mg/kg/injection, schedule: Q04DX003 (ip), vehicle: water) was 120 % of control; the T/C (endpoint: median survival time, dose: 0.25 mg/kg/injection, schedule: Q01DX009 (ip), vehicle: water) was 94 % of control; the T/C (endpoint: median survival time, dose: 0.25 mg/kg/injection, schedule: Q03HX024 (ip), vehicle: water) was 105 % of control; the T/C (endpoint: median survival time, dose: 0.5 mg/kg/injection, schedule: Q01DX009 (ip), vehicle: water) is 110 % of control; the T/C (endpoint: median survival time, dose: 0.5 mg/kg/injection, schedule: Q03HX024 (ip), vehicle: water) is 110 % of control; the T/C (endpoint: median survival time, dose: 0.78 mg/kg/injection, schedule: Q03HX008 (ip), vehicle: water) is 122 % of control. The T/C (endpoint: median survival time, dose: 0.78 mg/kg/injection, schedule: Q03HX024 (ip), vehicle: water) was 111 % of control; the T/C (endpoint: median survival time, dose: 1.0 mg/kg/injection, schedule: Q01DX009 (ip), vehicle: water) is 115 % of control; the T/C (endpoint: median survival time, dose: 1.0 mg/kg/injection, schedule: Q03HX008 (ip), vehicle: water) was 115 % of control; the T/C (endpoint: median survival time, dose: 1.17 mg/kg/injection, schedule: Q03HX024 (ip), vehicle: water) was 100 % of control; the T/C (endpoint: median survival time, dose: 1.2 mg/kg/injection, schedule: Q01DX009 (ip), vehicle: water) was 105 % of control; the T/C (endpoint: median survival time, dose: 1.2 mg/kg/injection, schedule: Q03HX008 (ip), vehicle: water) was 105 % of control. Besides, the T/C runs as follows: (endpoint: median survival time, dose: 1.25 mg/kg/injection, schedule: Q04DX003 (ip), vehicle: water) 105 % of control; (endpoint: median survival time, dose: 1.75 mg/kg/injection, schedule: Q01DX009 (ip), vehicle: water) 94 % of control; (endpoint: median survival time, dose: 1.75 mg/kg/injection, schedule: Q03HX024 (ip), vehicle: water) 111 % of control; (endpoint: median survival time, dose: 2.0 mg/kg/injection, schedule: Q01DX009 (ip), vehicle: water) 110 % of control; (endpoint: median survival time, dose: 2.5 mg/kg/injection, schedule: Q01DX001 (ip), vehicle: water) 115 % of control; (endpoint: median survival time, dose: 2.5 mg/kg/injection, schedule: Q04DX003 (ip), vehicle: water) 121 % of control. For the same compound, the T/C runs as follows: (endpoint: median survival time, dose: 2.6 mg/kg/injection, schedule: Q01DX009 (ip), vehicle: water) 122 % of control; (endpoint: median survival time, dose: 2.6 mg/kg/injection, schedule: Q03HX008 (ip), vehicle: water) 105 % of control; (endpoint: median survival time, dose: 2.6 mg/kg/injection, schedule: Q03HX024 (ip), vehicle: water) 94 % of control; (endpoint: median survival time, dose: 2.6 mg/kg/injection, schedule: Q04DX003 (ip), vehicle: water) 111 % of control; (endpoint: median survival time, dose: 3.9 mg/kg/injection, schedule: Q01DX001 (ip), vehicle: water) 111 % of control; (endpoint: median survival time, dose: 3.9 mg/kg/injection, schedule: Q01DX009 (ip), vehicle: water) 122 % of control. In addition, the T/C by setting is: (endpoint: median survival time, dose: 3.9 mg/kg/injection, schedule: Q03HX008 (ip), vehicle: water) 100 % of control; (endpoint: median survival time, dose: 3.9 mg/kg/injection, schedule: Q03HX024 (ip), vehicle: water) 88 % of control; (endpoint: median survival time, dose: 3.9 mg/kg/injection, schedule: Q04DX003 (ip), vehicle: water) 111 % of control; (endpoint: median survival time, dose: 4.0 mg/kg/injection, schedule: Q03HX008 (ip), vehicle: water) 152 % of control; (endpoint: median survival time, dose: 5.0 mg/kg/injection, schedule: Q01DX001 (ip), vehicle: water) 115 % of control; (endpoint: median survival time, dose: 5.0 mg/kg/injection, schedule: Q04DX003 (ip), vehicle: water) 105 % of control. Further, the T/C reads like this: (endpoint: median survival time, dose: 5.9 mg/kg/injection, schedule: Q01DX001 (ip), vehicle: water) 100 % of control; (endpoint: median survival time, dose: 5.9 mg/kg/injection, schedule: Q04DX003 (ip), vehicle: water) 100 % of control; (endpoint: median survival time, dose: 8.9 mg/kg/injection, schedule: Q01DX001 (ip), vehicle: water) 122 % of control; (endpoint: median survival time, dose: 8.9 mg/kg/injection, schedule: Q01DX009 (ip), vehicle: water) 94 % of control; (endpoint: median survival time, dose: 8.9 mg/kg/injection, schedule: Q04DX003 (ip), vehicle: water) 111 % of control; (endpoint: median survival time, dose: 10.0 mg/kg/injection, schedule: Q01DX001 (ip), vehicle: water) 115 % of control. In addition, the T/C runs as follows: (endpoint: median survival time, dose: 10.0 mg/kg/injection, schedule: Q04DX003 (ip), vehicle: water) 163 % of control; (endpoint: median survival time, dose: 13.3 mg/kg/injection, schedule: Q01DX001 (ip), vehicle: water) 111 % of control; (endpoint: median survival time, dose: 13.3 mg/kg/injection, schedule: Q04DX003 (ip), vehicle: water) 105 % of control; (endpoint: median survival time, dose: 20.0 mg/kg/injection, schedule: Q01DX001 (ip), vehicle: water) 157 % of control; (endpoint: median survival time, dose: 20.0 mg/kg/injection, schedule: Q04DX003 (ip), vehicle: water) 100 % of control; (endpoint: median survival time, dose: 20.0 mg/kg/injection, schedule: Q08DX002 (ip), vehicle: water) 89 % of control.

As for `O=C(N[C@H](CO)[C@H](O)c1ccc([N+](=O)[O-])cc1)C(Cl)Cl`, the T/C is 106 % of control (endpoint: mean survival time, dose: 316.0 mg/kg/injection, schedule: Q01DX001 (ip), vehicle: carboxymethylcellulose (CMC)); 115 % of control (endpoint: mean survival time, dose: 475.0 mg/kg/injection, schedule: Q01DX001 (ip), vehicle: carboxymethylcellulose (CMC)); 113 % of control (endpoint: mean survival time, dose: 720.0 mg/kg/injection, schedule: Q01DX001 (ip), vehicle: carboxymethylcellulose (CMC)); 105 % of control (endpoint: median survival time, dose: 274.4 mg/kg/injection, schedule: Q01DX001 (ip), vehicle: saline); 100 % of control and 101 % of control (endpoint: median survival time, dose: 392.0 mg/kg/injection, schedule: Q01DX001 (ip), vehicle: saline); 93 % of control and 94 % of control and 95 % of control (endpoint: median survival time, dose: 560.0 mg/kg/injection, schedule: Q01DX001 (ip), vehicle: saline). Also, the T/C (endpoint: median survival time, dose: 560.0 mg/kg/injection, schedule: Q03DX001 (ip), vehicle: saline) was 88 % of control; the T/C (endpoint: median survival time, dose: 800.0 mg/kg/injection, schedule: Q01DX001 (ip), vehicle: saline) is 99 % of control and 100 % of control and 102 % of control; the T/C (endpoint: median survival time, dose: 800.0 mg/kg/injection, schedule: Q03DX001 (ip), vehicle: saline) is 100 % of control.

For `O=C1CCC(=O)N1CCCO`, the T/C is 107 % of control (endpoint: mean survival time, dose: 100.0 mg/kg/injection, schedule: Q04DX003 (ip), vehicle: saline); 100 % of control (endpoint: mean survival time, dose: 200.0 mg/kg/injection, schedule: Q04DX003 (ip), vehicle: saline); 104 % of control (endpoint: mean survival time, dose: 400.0 mg/kg/injection, schedule: Q04DX003 (ip), vehicle: saline).

For the compound `c1cc2c([nH]1)CCCC2`, the T/C (endpoint: mean survival time, dose: 75.0 mg/kg/injection, schedule: Q01DX001 (ip), vehicle: acetone) is 106 % of control; the T/C (endpoint: mean survival time, dose: 150.0 mg/kg/injection, schedule: Q01DX001 (ip), vehicle: acetone) is 111 % of control; the T/C (endpoint: mean survival time, dose: 300.0 mg/kg/injection, schedule: Q01DX001 (ip), vehicle: acetone) is 100 % of control.

For `COC(=O)c1c(Cl)c(Cl)c(C(=O)OC)c(Cl)c1Cl`, the T/C is, setting by setting: (endpoint: mean survival time, dose: 100.0 mg/kg/injection, schedule: Q01DX009 (ip), vehicle: saline with Tween-80) 91 % of control; under setting [1], 90 % of control; (endpoint: mean survival time, dose: 200.0 mg/kg/injection, schedule: Q01DX009 (ip), vehicle: saline with Tween-80) 92 % of control; under setting [2], 90 % of control; (endpoint: mean survival time, dose: 400.0 mg/kg/injection, schedule: Q01DX009 (ip), vehicle: saline with Tween-80) 92 % of control; (endpoint: mean survival time, dose: 400.0 mg/kg/injection, schedule: Q04DX003 (ip), vehicle: saline with Tween-80) 95 % of control.

For `C1=CC2CC1CC2CNCCN1CC1` (stereo unspecified), the T/C reads like this: (endpoint: mean survival time, dose: 10.0 mg/kg/injection, schedule: Q04DX003 (ip), vehicle: saline) 106 % of control; (endpoint: mean survival time, dose: 20.0 mg/kg/injection, schedule: Q04DX003 (ip), vehicle: saline) 87 % of control.

For `Cc1cc2ccccc2cn1`, the T/C by setting is: (endpoint: mean survival time, dose: 50.0 mg/kg/injection, schedule: Q01DX001 (ip), vehicle: other) 103 % of control; (endpoint: mean survival time, dose: 100.0 mg/kg/injection, schedule: Q01DX001 (ip), vehicle: other) 101 % of control; under setting [1], 96 % of control; (endpoint: mean survival time, dose: 200.0 mg/kg/injection, schedule: Q01DX001 (ip), vehicle: other) 95 % of control; under setting [2], 103 % of control.
